The results in this text go back to ChEMBL document CHEMBL1141696 (Bioorg Med Chem Lett, 2008).

Experiment [1] is described as follows: Binding affinity to delta opioid receptor in guinea pig forebrain. Also on record: species or system Cavia porcellus.
A further experiment deals with Mus musculus. Description: Antinociceptive activity in sc dosed mouse assessed as attenuation of acetic acid-induced writhing per 10 mins. In kind it is functional. (In general: In writhing tests, fewer writhes than in controls are read as antinociception.)

For `O=C1CC[C@@]2(O)[C@H]3Cc4ccc(O)c5c4[C@@]2(CCN3CC2CC2)[C@H]1O5` [NALTREXONE], the Ki in experiment [1] is 20.7 nM. In other words, the double-digit nanomolar range.

In experiment [1], `CC(C)CN1CC[C@]23c4c5ccc(O)c4O[C@H]2C(=O)CC[C@@]3(O)[C@H]1C5` registered a Ki of 229 nM. In addition, in the experiment on Mus musculus, the Activity entry is “Dose-dependent effect” and the ED50 is 5.05 mg/kg.

The term Ki denotes the dissociation constant of the complex between target and ligand, obtained from inhibition or displacement. The low end stands for higher affinity, the high end for lower affinity. The term ED50 denotes the dose at which the effect has come halfway, by size or by number of responders.
